Measured values from patent EP1202992B1, “ASCIDIDEMIN DERIVATIVES AND THEIR THERAPEUTIC APPLICATIONS” (CEPHALON FRANCE, priority 1999, dated 2001).
Read-outs that look alike come from different tables or passages of the source.

Legend:
[1] = test system: souris B6D2F1/Jico; experiment: Determination of the maximum tolerated dose (DMT); assay type: in vivo; conditions: B6D2F1/Jico mice, single intraperitoneal administration, doses 2,5 to 160 mg/kg, survival over 14 days
Description: L'évaluation de la dose maximale tolérée a été réalisée chez des souris B6D2F1/Jico âgées de 4 à 6 semaines. Les composés ont été administrés par voie intrapéritonéale à des doses croissantes s'échelonnant de 2,5 à 160 mg/kg. La valeur de la DMT (exprimée en mg/kg) est déterminée à partir de l'observation du taux de survie des animaux sur une période de 14 jours après une administration unique du produit considéré. L'évolution pondérale des animaux est également suivie pendant cette période. Lorsque la valeur de la DMT est supérieure à 160 mg/kg, la valeur de la DMT est assimilée à 160 mg/kg par défaut.

[2] = test system: 12 lignées tumorales humaines; experiment: MTT colorimetric cytotoxicity test, all 12 tumour cell lines together; assay type: cell-based; conditions: mean calculated from the cytotoxic activity on the 12 tumour cell lines; read-out: Cl 50 (the source's name)
Description: (§1) L'influence des composés de formules I et la sur les cellules néoplasiques a été évaluée à l'aide du test colorimétrique MTT. Le principe du test MTT est basé sur la réduction mitochondriale par les cellules vivantes métaboliquement actives du produit MTT (3-(4,5-diméthylthiazol-2-yl)-2,5 diphényltétrazolium bromide) de couleur jaune en un produit de couleur bleue, le formazan. La quantité de formazan ainsi obtenue est directement proportionnelle à la quantité de cellules vivantes présentes dans le (ou les) puit(s) de culture. Cette quantité de formazan est mesurée par spectrophotométrie.
(§2) Les lignées cellulaires sont maintenues en culture monocouche à 37°C dans des boîtes de culture à bouchon fermé contenant du milieu de base MEM 25 MM HEPES (Minimum Essential Medium). Ce milieu, adapté à la croissance d'une gamme de cellules variées diploïdes ou primaires de mammifères, est ensuite additionné : • d'une quantité de 5% de SVF (Sérum de Veau Foetal) décomplémenté à 56°C pendant 1 heure, • de 0,6 mg/ml de L-glutamine, • de 200 IU/ml de pénicilline, • de […] de streptomycine, • de 0,1 mg/ml de gentamicine.
Les 12 lignées cellulaires cancéreuses humaines utilisées ont été obtenues auprès de l'American Type Culture Collection (ATCC, Rockville, MD, USA). Ces 12 lignées cellulaires sont : • U-373MG (code ATCC : HTB-17) et U-87MG (code ATCC : HTB-14) qui sont deux glioblastomes, • SW1088 (code ATCC : HTB-12) qui est un astrocytome, • A549 (code ATCC : CCL-185) et A-427 (code ATCC : HTB-53) qui sont deux cancers du poumon non-à-petites-cellules, • HCT-15 (code ATCC : CCL-225) et LoVo (code ATCC : CCL-229) qui sont deux cancers colorectaux, • T-47D (code ATCC : HTB-133) et MCF7 (code ATCC : HTB-22) qui sont deux cancers du sein, • J82 (code ATCC : HTB-1) et T24 (code ATCC : HTB-4) qui sont deux cancers de la vessie, • PC-3 (code ATCC : CRL-1435) qui est un cancer de la prostate.
Au plan expérimental : 100 µl d'une suspension cellulaire contenant 20 000 à 50 000 (selon le type cellulaire utilisé) cellules/ml de milieu de culture sont ensemencés en plaques multi-puits de 96 puits à fond plat et sont mis à incuber à 37°C, sous atmosphère comprenant 5% de CO2 et 70% d'humidité. Au bout de 24 heures d'incubation, le milieu de culture est remplacé par 100 µl de milieu frais contenant soit les différents composés à tester à des concentrations variant de 10^-5 à 10^-10 M soit le solvant ayant servi à la mise en solution des produits à tester (condition contrôle). Après 72 heures d'incubation dans les conditions précédentes, le milieu de culture est remplacé par 100 µl d'une solution jaunâtre de MTT dissous à raison de 1 mg/ml dans du RPMI 1640. Les microplaques sont remises à incuber pendant 3 heures à 37°C puis centrifugées pendant 10 minutes à 400 g. La solution jaunâtre de MTT est éliminée et les cristaux de formazan bleu formés au niveau cellulaire sont dissous dans 100 µl de DMSO. Les microplaques sont ensuite mises sous agitation pendant 5 minutes. L'intensité de la coloration bleue résultant donc de la transformation du produit MTT jaune en formazan bleu par les cellules encore vivantes au terme de l'expérience est quantifiée par spectrophotométrie à l'aide d'un appareil de type DYNATECH IMMUNOASSAY SYSTEM aux longueurs d'onde de 570 nm et 630 nm correspondant respectivement aux longueurs d'ondes d'absorbance maximale du formazan et au bruit de fond. Un logiciel intégré au spectrophotomètre calcule les valeurs moyennes de densité optique ainsi que les valeurs de déviation standard (Dév. Std.) et d'erreur standard sur la moyenne (ESM).
L'activité inhibitrice de la croissance cellulaire des composés de formules I et la sur les différentes lignées cellulaires tumorales a été comparée à celle du produit naturel, l'ascididémine (CRL 8274). […]

[3] = test system: J82; experiment: MTT colorimetric cytotoxicity test, J82; assay type: cell-based, humaines; conditions: J82, 72 h incubation, read-out: Concentrations inhibitrices (M) encadrant la valeur de la concentration inhibitrice 50 %
Description: as §1, §2
(§3) Les 12 lignées cellulaires cancéreuses humaines utilisées ont été obtenues auprès de l'American Type Culture Collection (ATCC, Rockville, MD, USA). […]

[4] = test system: SW1088; experiment: MTT colorimetric cytotoxicity test, SW1088; assay type: cell-based, humaines; conditions: SW1088, 72 h incubation, read-out: Concentrations inhibitrices (M) encadrant la valeur de la concentration inhibitrice 50 %
Description: as §1, §2, §3
Au plan expérimental : 100 µl d'une suspension cellulaire contenant 20 000 à 50 000 (selon le type cellulaire utilisé) cellules/ml de milieu de culture sont ensemencés en plaques multi-puits de 96 puits à fond plat et sont mis à incuber à 37°C, sous atmosphère comprenant 5% de CO2 et 70% d'humidité. […] L'intensité de la coloration bleue résultant donc de la transformation du produit MTT jaune en formazan bleu par les cellules encore vivantes au terme de l'expérience est quantifiée par spectrophotométrie à l'aide d'un appareil de type DYNATECH IMMUNOASSAY SYSTEM aux longueurs d'onde de 570 nm et 630 nm correspondant respectivement aux longueurs d'ondes d'absorbance maximale du formazan et au bruit de fond. […]

[5] = test system: T24; experiment: MTT colorimetric cytotoxicity test, T24; assay type: cell-based, humaines; conditions: read-out: Concentrations inhibitrices (M) encadrant la valeur de la concentration inhibitrice 50 %
Description: as §1, §2, §3

[6] = test system: LoVo; experiment: MTT colorimetric cytotoxicity test, LoVo; assay type: cell-based, humaines; conditions: Homo sapiens, 72 h incubation, read-out: Concentrations inhibitrices (M) encadrant la valeur de la concentration inhibitrice 50 %
Description: as §1, §2, §3

[7] = test system: PC-3; experiment: MTT colorimetric cytotoxicity test, PC-3; assay type: cell-based, humaines; conditions: Homo sapiens, PC-3, 72 h incubation, read-out: Concentrations inhibitrices (M) encadrant la valeur de la concentration inhibitrice 50 %
Description: as §1, §2, §3

[8] = test system: U-373MG; experiment: MTT colorimetric cytotoxicity test, U-373MG; assay type: cell-based, humaines; conditions: 72 h incubation, read-out: Concentrations inhibitrices (M) encadrant la valeur de la concentration inhibitrice 50 %
Description: as §1, §2, §3

[9] = test system: modèle cellulaire de leucémie; conditions: leukaemia cell model, literature value; cited from earlier work

Compound | DMT [1] | IC50 [2] | also measured
5-(diméthylamino-2-éthyl)amino-9H-quino[4,3,2de][1,10] phénanthrolin-9-one [CRL 8419] | 40 mg/kg | 60 nM | 
O=C1c2nccc(Br)c2-c2nc3ccccc3c3ccnc1c23 [CRL 8248, 5-bromo-9H-quino[4,3,2-de] [1,10]phénantrolin-9-one] | >160 mg/kg | 80 nM | 
CC(=O)c1cc(C)ccc1NC1=CC(=O)c2ncccc2C1=O [CRL8322, 6-(2-acétyl-4-méthyl-phénylamino)-quinoline-5,8-dione] |  |  | IC50 ([3]; Homo sapiens): > 1e-05 M; IC50 ([4]; Homo sapiens): > 1e-05 M; IC50 ([5]; Homo sapiens, T-24, T24, 72 h incubation): > 1e-05 M; IC50 [6]: > 1e-05 M; IC50 [7]: > 1e-05 M
CC(=O)c1ccc(Br)cc1NC1=CC(=O)c2ncccc2C1=O [CRL8268, 6-(2-acétyl-5-bromo-phénylamino)-quinoline-5,8 dione] |  |  | IC50 ([4]; Homo sapiens): > 1e-05 M
9-H-quino[4,3,2-de][1,10]phénanthrolin-9-one [CRL 8274, reference compound] | 20 mg/kg | 100 nM | 
O=C1c2cccnc2-c2nccc3c2c1nc1ccc(NCc2ccccc2)cc13 [CRL 8416, Chlorhydratede la 5-(benzylamino)-9H-quino[4,3,2-de][1,10] phénanthrolin-9-one] | >160 mg/kg | 80 nM | 
5-chloro-9H-quino [4,3,2-de] [1,10] phénantrolin-9-one [CRL 8301] | >160 mg/kg | 270 nM | 
Chlorhydrate de la 5-(diméthylamino-2-éthyl)amino-9H-quino[4,3,2de][1,10] phénanthrolin-9-one [CRL 8418] | 40 mg/kg | 110 nM | 
Cc1ccc2nc3c(c(C)c2c1)C(=O)c1ncccc1C3=O [CRL8324, 9,11-diméthyl-1,6-diaza-naphtacène-5,12-dione] |  |  | IC50 [3]: > 1e-05 M; IC50 [4]: > 1e-05 M; IC50 [8]: > 1e-05 M; IC50 ([5]; T24, 72 h incubation): > 1e-05 M
Cc1ccc2nc3c4c(nccc4c2c1)-c1ncccc1C3=O [CRL 8323, 5-méthyl-9H-quino [4,3,2-de][1,10] phénanthrolin-9-one] | 20 mg/kg | 60 nM | 
CN(C)c1ccc2nc3c4c(nccc4c2c1)-c1ncccc1C3=O [CRL 8407, Chlorhydratede la 5-(diméthylamino)-9H-quino[4,3,2-de][1,10] phénanthrolin-9-one] | >160 mg/kg | 22 nM | 
CN(C)c1ccc2nc3c4c(nccc4c2c1)-c1ncccc1C3=O [CRL 8325, 5-(diméthylamino)-9H-quino[4,3,2-de][1,10]phénanthrolin-9-one] | >160 mg/kg | 37 nM | 
5-bis(2-chloroéthyl)amino-9H-quino[4,3,2de][1,10] phénanthrolin-9-one [CRL 8422] | >160 mg/kg | 100 nM | 
Nc1ccnc2c1-c1nc3ccccc3c3ccnc(c13)C2=O [CRL 8347, 5-amino-9H-quino[4,3,2-de][1,10]phénanthtolin-9-one] | >160 mg/kg | 21 nM | 
2-bromoleptoclinidone [CRL 8269, reference compound] | 40 mg/kg | 120 nM | DE 50 [9]: 0.4 µg/mL
COc1ccc2nc3c4c(nccc4c2c1)-c1ncccc1C3=O [CRL 8297, 5-méthoxy-9H-quino[4,3,2-de][1,10]phénanthrolin-9-one] | >160 mg/kg | 90 nM | 
Chlorhydrate de la 5-amino-9H-quino[4,3,2-de][1,10]phénanthrolin-9-one [CRL 8406] | >160 mg/kg | 60 nM | 
O=C1c2cccnc2-c2nccc3c2c1nc1ccc(NCc2ccccc2)cc13 [CRL 8241, 5-(benzylamino)-9H-quino[4,3,2-de][1,10] phénanthrolin-9-one] | >160 mg/kg | 140 nM | 
5-(2-chloroéthyl)amino-9H-quino[4,3,2de][1,10] phénanthrolin-9-one [CRL 8423] | >160 mg/kg | 7 nM | 
COc1ccnc2c1C(=O)c1nc3ccc(Br)cc3c3ccnc-2c13 [CRL 8389, 5-bromo-10-méthoxy-9H-quino[4,3,2-de][1,10]phénanthrolin-9-one] | >160 mg/kg | 420 nM | 
